Assay results taken from ChEMBL document CHEMBL1156950, “Synthesis and biological evaluation of 4-anilinoquinolines as potent inhibitors of epidermal growth factor receptor” (J Med Chem, 2010).
The source made the active and inactive calls. The rule behind the calls is not given here.

Experiments:
cells [1] = conditions: Mus musculus, BaF3, 96 h
cells [2] = conditions: Mus musculus, BaF3, 96 h; remark: listed apart in the source
Description: Growth inhibition of mouse BA/F3 cells expressing EGFR Del3 and Thr790Met mutant after 96 hrs by cell titer-glo assay

cells [3] = conditions: Mus musculus, BaF3, 96 h; remark: listed apart in the source
Description: Growth inhibition of mouse BA/F3 cells expressing EGFR Del1 mutant after 96 hrs by cell titer-glo assay

cells [4] = conditions: Mus musculus, BaF3, 96 h; remark: listed apart in the source
Description: Growth inhibition of mouse BA/F3 cells expressing EGFR Del1 and Thr790Met mutant after 96 hrs by cell titer-glo assay

cells [5] = conditions: Mus musculus, BaF3, 96 h; remark: listed apart in the source
cells [6] = conditions: Mus musculus, BaF3, 96 h; remark: listed apart in the source
Description: Growth inhibition of mouse BA/F3 cells expressing EGFR Del3 mutant after 96 hrs by cell titer-glo assay

cells [7] = conditions: Mus musculus, BaF3, 96 h; remark: listed apart in the source
Description: Growth inhibition of mouse BA/F3 cells expressing EGFR Del5 and Thr790Met mutant after 96 hrs by cell titer-glo assay

cells [8] = conditions: Mus musculus, BaF3, 96 h; remark: listed apart in the source
Description: Growth inhibition of mouse BA/F3 cells expressing EGFR Del5 mutant after 96 hrs by cell titer-glo assay

[9] = target: Epidermal growth factor receptor (Homo sapiens, UniProt P00533, L858R/T790M); test: Inhibition of EGFR Leu858Arg and Thr790Met mutant by HTRF assay; assay type: protein assay
Chain of Epidermal growth factor receptor (Homo sapiens, UniProt P00533, L858R/T790M) (P00533 25-1210 T790M/L858R limits assumed): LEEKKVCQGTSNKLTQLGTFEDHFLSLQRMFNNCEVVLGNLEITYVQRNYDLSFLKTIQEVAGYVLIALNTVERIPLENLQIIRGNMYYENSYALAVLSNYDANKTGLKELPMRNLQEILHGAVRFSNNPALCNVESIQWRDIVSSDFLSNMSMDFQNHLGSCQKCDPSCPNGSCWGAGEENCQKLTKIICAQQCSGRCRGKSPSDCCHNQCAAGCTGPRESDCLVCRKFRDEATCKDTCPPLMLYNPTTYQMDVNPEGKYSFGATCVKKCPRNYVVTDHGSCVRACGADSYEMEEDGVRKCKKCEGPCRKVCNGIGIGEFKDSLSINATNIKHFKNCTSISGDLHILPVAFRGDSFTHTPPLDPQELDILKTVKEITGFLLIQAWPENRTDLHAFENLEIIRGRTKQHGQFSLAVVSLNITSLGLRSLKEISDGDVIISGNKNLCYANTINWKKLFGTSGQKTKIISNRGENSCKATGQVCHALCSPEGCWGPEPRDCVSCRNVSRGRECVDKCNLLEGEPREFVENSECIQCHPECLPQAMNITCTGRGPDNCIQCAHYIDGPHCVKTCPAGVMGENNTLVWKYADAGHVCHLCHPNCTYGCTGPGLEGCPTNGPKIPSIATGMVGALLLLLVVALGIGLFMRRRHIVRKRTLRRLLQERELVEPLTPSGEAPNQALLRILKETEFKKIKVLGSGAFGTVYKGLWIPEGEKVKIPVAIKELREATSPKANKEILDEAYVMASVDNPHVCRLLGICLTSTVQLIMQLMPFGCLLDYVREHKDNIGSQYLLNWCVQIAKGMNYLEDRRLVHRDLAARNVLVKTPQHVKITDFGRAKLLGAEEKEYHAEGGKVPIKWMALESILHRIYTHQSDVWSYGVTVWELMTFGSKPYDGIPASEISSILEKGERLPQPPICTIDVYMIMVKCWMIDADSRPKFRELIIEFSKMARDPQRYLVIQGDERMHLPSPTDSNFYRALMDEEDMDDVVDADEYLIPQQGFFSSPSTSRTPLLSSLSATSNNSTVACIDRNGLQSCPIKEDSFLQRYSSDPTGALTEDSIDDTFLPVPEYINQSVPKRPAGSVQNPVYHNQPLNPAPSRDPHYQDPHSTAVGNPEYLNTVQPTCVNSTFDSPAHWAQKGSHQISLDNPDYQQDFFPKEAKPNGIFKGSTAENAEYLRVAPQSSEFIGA

[10] = target: Epidermal growth factor receptor (Homo sapiens, UniProt P00533, L858R); test: Inhibition of EGFR Leu858Arg mutant by HTRF assay; assay type: protein assay
Chain of Epidermal growth factor receptor (Homo sapiens, UniProt P00533, L858R) (P00533 25-1210 L858R limits assumed): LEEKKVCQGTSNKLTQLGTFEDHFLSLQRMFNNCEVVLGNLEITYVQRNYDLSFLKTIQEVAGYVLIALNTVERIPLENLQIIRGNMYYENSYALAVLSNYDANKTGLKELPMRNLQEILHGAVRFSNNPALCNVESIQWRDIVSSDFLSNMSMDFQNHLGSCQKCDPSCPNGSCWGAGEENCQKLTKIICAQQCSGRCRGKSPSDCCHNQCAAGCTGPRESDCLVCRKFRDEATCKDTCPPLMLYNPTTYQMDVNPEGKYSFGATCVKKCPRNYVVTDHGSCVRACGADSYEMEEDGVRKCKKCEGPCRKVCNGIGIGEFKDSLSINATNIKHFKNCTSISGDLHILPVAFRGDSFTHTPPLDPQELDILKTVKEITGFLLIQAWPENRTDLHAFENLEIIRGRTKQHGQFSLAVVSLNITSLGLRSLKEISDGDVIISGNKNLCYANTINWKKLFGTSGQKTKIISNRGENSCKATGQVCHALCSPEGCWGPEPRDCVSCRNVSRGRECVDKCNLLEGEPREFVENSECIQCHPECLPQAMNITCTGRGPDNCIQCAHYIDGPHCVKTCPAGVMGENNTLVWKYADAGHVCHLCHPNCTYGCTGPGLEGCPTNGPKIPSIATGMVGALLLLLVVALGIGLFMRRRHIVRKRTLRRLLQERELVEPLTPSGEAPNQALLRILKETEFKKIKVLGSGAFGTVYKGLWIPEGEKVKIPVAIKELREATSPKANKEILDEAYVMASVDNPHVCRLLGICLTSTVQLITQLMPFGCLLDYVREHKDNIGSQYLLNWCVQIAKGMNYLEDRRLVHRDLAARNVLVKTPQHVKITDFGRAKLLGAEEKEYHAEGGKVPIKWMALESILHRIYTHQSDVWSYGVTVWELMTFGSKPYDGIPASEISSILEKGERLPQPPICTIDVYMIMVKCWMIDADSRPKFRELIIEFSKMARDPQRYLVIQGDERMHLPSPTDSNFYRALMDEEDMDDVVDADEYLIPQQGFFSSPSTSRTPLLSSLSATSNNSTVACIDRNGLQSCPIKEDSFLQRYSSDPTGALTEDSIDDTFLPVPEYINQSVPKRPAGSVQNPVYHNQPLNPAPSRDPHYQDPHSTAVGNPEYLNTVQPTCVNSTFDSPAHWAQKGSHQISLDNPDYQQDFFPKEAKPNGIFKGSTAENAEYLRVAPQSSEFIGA

[11] = target: T1, Epidermal growth factor receptor (Homo sapiens, UniProt P00533); test: Inhibition of wild type EGFR by HTRF assay
T1 sequence (P00533 whole entry): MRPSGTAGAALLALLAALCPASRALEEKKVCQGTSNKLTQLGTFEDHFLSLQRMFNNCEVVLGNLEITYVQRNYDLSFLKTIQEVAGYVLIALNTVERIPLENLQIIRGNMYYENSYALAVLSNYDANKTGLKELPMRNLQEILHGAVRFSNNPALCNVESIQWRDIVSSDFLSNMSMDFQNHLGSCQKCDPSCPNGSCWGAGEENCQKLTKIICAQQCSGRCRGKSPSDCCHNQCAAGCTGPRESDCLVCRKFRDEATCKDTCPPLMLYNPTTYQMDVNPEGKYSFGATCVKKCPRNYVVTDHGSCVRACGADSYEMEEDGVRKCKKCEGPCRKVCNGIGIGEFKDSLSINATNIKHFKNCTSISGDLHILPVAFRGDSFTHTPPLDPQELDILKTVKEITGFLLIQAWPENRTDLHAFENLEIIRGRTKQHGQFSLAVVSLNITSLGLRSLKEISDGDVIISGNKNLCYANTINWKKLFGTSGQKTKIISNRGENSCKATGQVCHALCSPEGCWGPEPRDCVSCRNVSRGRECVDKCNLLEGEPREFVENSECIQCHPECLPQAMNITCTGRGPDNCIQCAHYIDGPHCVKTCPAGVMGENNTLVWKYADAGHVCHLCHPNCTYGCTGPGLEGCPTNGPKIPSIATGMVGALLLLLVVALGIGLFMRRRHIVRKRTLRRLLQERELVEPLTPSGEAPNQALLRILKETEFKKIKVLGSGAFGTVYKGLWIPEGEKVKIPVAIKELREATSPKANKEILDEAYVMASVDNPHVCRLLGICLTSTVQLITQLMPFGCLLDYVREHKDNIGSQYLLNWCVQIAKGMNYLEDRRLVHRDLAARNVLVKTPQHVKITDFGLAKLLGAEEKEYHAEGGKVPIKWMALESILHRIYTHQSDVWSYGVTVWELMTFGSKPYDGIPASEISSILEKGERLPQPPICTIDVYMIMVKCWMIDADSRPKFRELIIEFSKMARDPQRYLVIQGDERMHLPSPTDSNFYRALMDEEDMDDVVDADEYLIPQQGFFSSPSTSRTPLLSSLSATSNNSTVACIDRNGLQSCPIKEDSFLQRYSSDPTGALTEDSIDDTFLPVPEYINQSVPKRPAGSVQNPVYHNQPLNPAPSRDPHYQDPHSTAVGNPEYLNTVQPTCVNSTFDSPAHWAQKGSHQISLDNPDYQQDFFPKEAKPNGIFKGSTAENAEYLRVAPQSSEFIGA

[12] = target: T1, Epidermal growth factor receptor; test: Inhibition of 746-750 sequence deleted EGFR autophosphorylation in human PC9 cells after 24 hrs by immunoblotting; assay type: cell-based; conditions: PC-9
PC-9 = test: Cytotoxicity against human PC9 cells expressing 746-750 sequence deleted EGFR assessed as cell viability at 0.001 to 10 uM after 96 hrs by cell titer-glo assay; assay type: functional, cell-based
NCI-H1975 = test: Cytotoxicity against human NCI-H1975 cells expressing EGFR T790M and L858R mutant at 0.001 to 10 uM after 96 hrs by cell titer-glo assay; assay type: functional, cell-based

Row | Structure (SMILES) | IC50 [9] [µM] | IC50 [10] [µM] | IC50 [11] [µM] | Activity [12] | GI50 (cells [1]) [µM] | GI50 (cells [2]) [µM] | GI50 (cells [3]) [µM] | GI50 (cells [4]) [µM] | GI50 (cells [5]) [µM] | GI50 (cells [6]) [µM] | GI50 (cells [7]) [µM] | GI50 (cells [8]) [µM] | Activity (PC-9) | Activity (NCI-H1975)
1 | C=CC(=O)Nc1ccc2ncnc(Nc3cccc(Br)c3)c2c1 | – | – | – | – | < 0.5 | < 0.5 | < 0.5 | > 0.5 | < 0.5 | < 0.5 | < 0.5 | < 0.5 | – | –
2 | CCC(=O)Nc1ccc2nccc(Nc3cccc(Br)c3)c2c1 | – | – | – | – | > 0.5 | > 0.5 | < 0.5 | > 0.5 | > 0.5 | < 0.5 | > 0.5 | > 0.5 | – | –
3 | C#Cc1cccc(Nc2ncnc3cc(OCCOC)c(OCCOC)cc23)c1 [ERLOTINIB] | – | – | – | – | > 5 | > 5 | < 0.5 | > 5 | < 0.5 | < 0.5 | > 5 | < 0.5 | Active | Active

Second part, led by results:

Row | IC50 [9] [µM] | IC50 [10] [µM] | IC50 [11] [µM] | Activity [12] | Structure (SMILES) | GI50 (cells [1]) [µM] | GI50 (cells [2]) [µM] | GI50 (cells [3]) [µM] | GI50 (cells [4]) [µM] | GI50 (cells [5]) [µM] | GI50 (cells [6]) [µM] | GI50 (cells [7]) [µM] | GI50 (cells [8]) [µM] | Activity (PC-9) | Activity (NCI-H1975)
4 | 1.5 | 0.014 | 0.03 | – | C#Cc1cccc(Nc2ccnc3cc(OCCOC)c(OCCOC)cc23)c1 | > 0.5 | > 0.5 | < 0.5 | > 0.5 | < 0.5 | > 0.5 | > 5 | > 5 | – | –
5 | 0.0032 | < 0.001 | < 0.001 | Dose-dependent effect | C=CC(=O)Nc1ccc2nccc(Nc3cccc(Br)c3)c2c1 | > 0.5 | > 0.5 | < 0.5 | > 0.5 | < 0.5 | < 0.5 | > 0.5 | < 0.5 | Active | Active
6 | 1.5 | 0.004 | 0.019 | – | C#Cc1cccc(Nc2ccnc3cc(OC)c(OC)cc23)c1 | > 5 | > 5 | < 0.5 | > 5 | < 0.5 | < 0.5 | > 5 | < 0.5 | – | –
7 | 0.14 | < 0.001 | < 0.001 | – | C#Cc1cccc(Nc2ncnc3cc(OC)c(OC)cc23)c1 | > 5 | > 5 | < 0.5 | > 0.5 | < 0.5 | < 0.5 | > 5 | < 0.5 | – | –
